Reference: patent publication US20250368634A1, “PHENYL AMIDE COMPOUNDS AND METHODS OF USE” (SCHRÖDINGER, INC., priority 2022, published 2025)
Read-outs that look alike come from different tables or passages of the source.

Target: SOS1-KRas (G12C) (Homo sapiens (Human), UniProt Q07889)
Assay: SOS1-KRas (G12C) FRET Assay
Assay type: binding
[1] = inhibition of SOS1:KRAS interaction, 0.5 nM His10-SOS1 (res. 564-1049), 2.5 nM GST-KRAS (res. 1-169, G12C), 2 hrs at RT

SOS1-KRas (G12C), sequence (Q07889 564-1049, stated change not applied): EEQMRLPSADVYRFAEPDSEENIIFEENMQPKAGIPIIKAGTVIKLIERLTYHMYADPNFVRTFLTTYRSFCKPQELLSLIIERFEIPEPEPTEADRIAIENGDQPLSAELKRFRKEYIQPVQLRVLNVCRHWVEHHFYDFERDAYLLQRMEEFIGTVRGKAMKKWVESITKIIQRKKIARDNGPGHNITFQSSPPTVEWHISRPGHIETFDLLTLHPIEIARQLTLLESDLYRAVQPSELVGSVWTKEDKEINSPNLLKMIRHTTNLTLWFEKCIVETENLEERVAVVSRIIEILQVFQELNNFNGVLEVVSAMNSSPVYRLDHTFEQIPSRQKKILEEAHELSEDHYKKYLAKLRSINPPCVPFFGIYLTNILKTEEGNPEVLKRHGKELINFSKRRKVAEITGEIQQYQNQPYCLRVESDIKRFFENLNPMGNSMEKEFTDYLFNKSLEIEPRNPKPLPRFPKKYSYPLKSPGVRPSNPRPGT

| IC50 [nM] | IC50 [1] [nM] | SMILES |
| --- | --- | --- |
| 27.9 | – | C[C@@H](NC(=O)c1cc(N2CCn3nccc3C2)c(F)cc1NC1CCN(C)CC1)c1cccc(C(F)F)c1F [Example 7, (R)—N-(1-(3-(difluoromethyl)-2-fluorophenyl)ethyl)-5-(6,7-dihydropyrazolo[1,5-a]pyrazin-5 (4H)-yl)-4-fluoro-2-((1-methylpiperidin-4-yl)amino)benzamide] |
| – | 74.5 | Cc1c([C@@H](C)NC(=O)c2cc(N3CC4(C3)CS(=O)(=O)C4)c(F)cc2NC2CCN(C)CC2)cccc1C(F)(F)F [Example 8, (R)-5-(2,2-dioxido-2-thia-6-azaspiro[3.3]heptan-6-yl)-4-fluoro-N-(1-(2-methyl-3-(trifluoromethyl)phenyl)ethyl)-2-((1-methylpiperidin-4-yl)amino)benzamide] |
| 94 | – | C[C@@H](NC(=O)c1cc(O[C@@H]2CCOC2)c(F)cc1NC1CCN(C)CC1)c1cccc(C(F)F)c1F [Example 9, N—((R)-1-(3-(difluoromethyl)-2-fluorophenyl)ethyl)-4-fluoro-2-((1-methylpiperidin-4-yl)amino)-5-(((R)-tetrahydrofuran-3-yl)oxy)benzamide] |
| – | 71.6 | C[C@@H](NC(=O)c1cc(O[C@H]2CCOC2)c(F)cc1NC1CCN(C)CC1)c1cccc(C(F)F)c1F [Example 10, N—((R)-1-(3-(difluoromethyl)-2-fluorophenyl)ethyl)-4-fluoro-2-((1-methylpiperidin-4-yl)amino)-5-(((S)-tetrahydrofuran-3-yl)oxy)benzamide] |
| 149 | – | Cc1c([C@@H](C)NC(=O)c2cc(-c3cnn(C)c3)c(F)cc2NC2CCN(C)CC2)cccc1C(F)(F)F [Example 11, (R)-4-fluoro-5-(1-methyl-1H-pyrazol-4-yl)-N-(1-(2-methyl-3-(trifluoromethyl)phenyl)ethyl)-2-((1-methylpiperidin-4-yl)amino)benzamide] |
| – | 67.2 | Cc1c([C@@H](C)NC(=O)c2cc(N3CCOCC3)c(Cl)cc2NC2CCN(C)CC2)cccc1C(F)(F)F [Example 13, (R)-4-chloro-N-(1-(2-methyl-3-(trifluoromethyl)phenyl)ethyl)-2-((1-methylpiperidin-4-yl)amino)-5-morpholinobenzamide] |
| – | 21.7 | C[C@@H](NC(=O)c1cc(N2CCOCC2)c(F)cc1NC1CCNCC1)c1cccc(C(F)F)c1F [Example 14, (R)—N-(1-(3-(difluoromethyl)-2-fluorophenyl)ethyl)-4-fluoro-5-morpholino-2-(piperidin-4-ylamino)benzamide] |
| – | 98.9 | C[C@@H](NC(=O)c1cc(N2CCOCC2)c(F)cc1N[C@@H]1[C@@H]2C[C@H]1CN(C)C2)c1cccc(C(F)F)c1F [Example 17, N—((R)-1-(3-(difluoromethyl)-2-fluorophenyl)ethyl)-4-fluoro-2-(((1R,5S,6s)-3-methyl-3-azabicyclo[3.1.1]heptan-6-yl)amino)-5-morpholinobenzamide] |
| – | 17.8 | C[C@@H](NC(=O)c1cc(N2CCOCC2)c(F)cc1N[C@H]1[C@@H]2C[C@H]1CN(C)C2)c1cccc(C(F)F)c1F [Example 18, N—((R)-1-(3-(difluoromethyl)-2-fluorophenyl)ethyl)-4-fluoro-2-(((1R,5S,6r)-3-methyl-3-azabicyclo[3.1.1]heptan-6-yl)amino)-5-morpholinobenzamide] |
| 99.4 | – | C[C@@H](NC(=O)c1cc(N2C[C@@H]3C[C@H]2CO3)c(F)cc1NC1CCN(C)CC1)c1cccc(C(F)F)c1F [Example 19, 5-((1S,4S)-2-oxa-5-azabicyclo[2.2.1]heptan-5-yl)-N—((R)-1-(3-(difluoromethyl)-2-fluorophenyl)ethyl)-4-fluoro-2-((1-methylpiperidin-4-yl)amino)benzamide] |
| – | 26.4 | CC(=O)N1CC2(C1)CN(c1cc(C(=O)N[C@H](C)c3cccc(C(F)(F)F)c3C)c(NC3CCN(C)CC3)cc1F)C2 [Example 20, (R)-5-(6-acetyl-2,6-diazaspiro[3.3]heptan-2-yl)-4-fluoro-N-(1-(2-methyl-3-(trifluoromethyl)phenyl)ethyl)-2-((1-methylpiperidin-4-yl)amino)benzamide] |
| – | 225 | Cc1c([C@@H](C)NC(=O)c2cc(C3CCOCC3)c(F)cc2NC2CCN(C)CC2)cccc1C(F)(F)F [Example 21, (R)-4-fluoro-N-(1-(2-methyl-3-(trifluoromethyl)phenyl)ethyl)-2-((1-methylpiperidin-4-yl)amino)-5-(tetrahydro-2H-pyran-4-yl)benzamide] |
| – | 20.6 | CC(=O)N1CCN(c2cc(C(=O)N[C@H](C)c3cccc(C(F)(F)F)c3C)c(NC3CCN(C)CC3)cc2F)CC1 [Example 22, (R)-5-(4-acetylpiperazin-1-yl)-4-fluoro-N-(1-(2-methyl-3-(trifluoromethyl)phenyl)ethyl)-2-((1-methylpiperidin-4-yl)amino)benzamide] |
| – | 358 | Cc1c([C@@H](C)NC(=O)c2cc(N3CCOCC3)ccc2NC2CCN(C)CC2)cccc1C(F)(F)F [Example 23, (R)—N-(1-(2-methyl-3-(trifluoromethyl)phenyl)ethyl)-2-((1-methylpiperidin-4-yl)amino)-5-morpholinobenzamide] |
| – | 138 | C[C@@H](NC(=O)c1cc(N2CC(F)(F)C[C@@H]2C)c(F)cc1NC1CCN(C)CC1)c1cccc(C(F)F)c1F [Example 37, 5-((S)-4,4-difluoro-2-methylpyrrolidin-1-yl)-N-((R)-1-(3-(difluoromethyl)-2-fluorophenyl)ethyl)-4-fluoro-2-((1-methylpiperidin-4-yl)amino)benzamide] |
| – | 35.7 | C[C@@H](NC(=O)c1cc(N2CC3COCC(C3)C2)c(F)cc1NC1CCN(C)CC1)c1cccc(C(F)F)c1F [Example 38, 5-(3-oxa-7-azabicyclo[3.3.1]nonan-7-yl)-N-((R)-1-(3-(difluoromethyl)-2-fluorophenyl)ethyl)-4-fluoro-2-((1-methylpiperidin-4-yl)amino)benzamide] |
| – | 21.9 | C[C@@H](NC(=O)c1cc(N2CCOC(F)(F)C2)c(F)cc1NC1CCN(C)CC1)c1cccc(C(F)F)c1F [Example 40, (R)-N-(1-(3-(difluoromethyl)-2-fluorophenyl)ethyl)-5-(2,2-difluoromorpholino)-4-fluoro-2-((1-methylpiperidin-4-yl)amino)benzamide] |
| – | 33.3 | C[C@@H](NC(=O)c1cc(N2CC3CCCC(C2)O3)c(F)cc1NC1CCN(C)CC1)c1cccc(C(F)F)c1F [Example 41, 5-(9-oxa-3-azabicyclo[3.3.1]nonan-3-yl)-N-((R)-1-(3-(difluoromethyl)-2-fluorophenyl)ethyl)-4-fluoro-2-((1-methylpiperidin-4-yl)amino)benzamide] |

| SMILES | IC50 [nM] | IC50 [1] [nM] |
| --- | --- | --- |
| C[C@@H](NC(=O)c1cc(N2CCOCC2)c(F)cc1N[C@H]1CN2CCC1CC2)c1cccc(C(F)F)c1F [Example 15, N—((R)-1-(3-(difluoromethyl)-2-fluorophenyl)ethyl)-4-fluoro-5-morpholino-2-(((R)-quinuclidin-3-yl)amino)benzamide] | 12.9 | – |
| C[C@@H](NC(=O)c1cc(N2CCOCC2)c(F)cc1N[C@@H]1CN2CCC1CC2)c1cccc(C(F)F)c1F [Example 16, N—((R)-1-(3-(difluoromethyl)-2-fluorophenyl)ethyl)-4-fluoro-5-morpholino-2-(((S)-quinuclidin-3-yl)amino)benzamide] | 41.6 | – |
| C[C@@H](NC(=O)c1cc(N2CCOCC2)c(C#N)cc1N[C@H]1CN2CCC1CC2)c1cccc(C(F)F)c1F [Example 24, 4-cyano-N—((R)-1-(3-(difluoromethyl)-2-fluorophenyl)ethyl)-5-morpholino-2-(((R)-quinuclidin-3-yl)amino)benzamide] | – | 22.7 |
| C[C@@H](NC(=O)c1cc(N2CCOCC2)c(C#N)cc1N[C@@H]1CN2CCC1CC2)c1cccc(C(F)F)c1F [Example 25, 4-cyano-N—((R)-1-(3-(difluoromethyl)-2-fluorophenyl)ethyl)-5-morpholino-2-(((S)-quinuclidin-3-yl)amino)benzamide] | – | 7.4 |
| C[C@@H](NC(=O)c1cc(N2CCC(F)(F)C2)c(F)cc1N[C@@H]1CN2CCC1CC2)c1cccc(C(F)F)c1F [Example 26, N—((R)-1-(3-(difluoromethyl)-2-fluorophenyl)ethyl)-5-(3,3-difluoropyrrolidin-1-yl)-4-fluoro-2-(((S)-quinuclidin-3-yl)amino)benzamide] | – | 88.8 |
| C[C@@H](NC(=O)c1cc(N2CCC(F)(F)C2)c(F)cc1N[C@H]1CN2CCC1CC2)c1cccc(C(F)F)c1F [Example 27, N—((R)-1-(3-(difluoromethyl)-2-fluorophenyl)ethyl)-5-(3,3-difluoropyrrolidin-1-yl)-4-fluoro-2-(((R)-quinuclidin-3-yl)amino)benzamide] | – | 22.5 |
| C[C@@H](NC(=O)c1cc(N2CCC2)c(F)cc1N[C@@H]1CN2CCC1CC2)c1cccc(C(F)F)c1F [Example 28, 5-(azetidin-1-yl)-N—((R)-1-(3-(difluoromethyl)-2-fluorophenyl)ethyl)-4-fluoro-2-(((S)-quinuclidin-3-yl)amino)benzamide] | – | 61.3 |
| C[C@@H](NC(=O)c1cc(N2CCC2)c(F)cc1N[C@H]1CN2CCC1CC2)c1cccc(C(F)F)c1F [Example 29, 5-(azetidin-1-yl)-N—((R)-1-(3-(difluoromethyl)-2-fluorophenyl)ethyl)-4-fluoro-2-(((R)-quinuclidin-3-yl)amino)benzamide] | – | 205 |
| C[C@@H](NC(=O)c1cc(N2CCCC2)c(F)cc1N[C@@H]1CN2CCC1CC2)c1cccc(C(F)F)c1F [Example 32, N—((R)-1-(3-(difluoromethyl)-2-fluorophenyl)ethyl)-4-fluoro-5-(pyrrolidin-1-yl)-2-(((S)-quinuclidin-3-yl)amino)benzamide] | – | 133 |
| C[C@@H](NC(=O)c1cc(N2CCCC2)c(F)cc1N[C@H]1CN2CCC1CC2)c1cccc(C(F)F)c1F [Example 33, N—((R)-1-(3-(difluoromethyl)-2-fluorophenyl)ethyl)-4-fluoro-5-(pyrrolidin-1-yl)-2-(((R)-quinuclidin-3-yl)amino)benzamide] | – | 35 |
| C[C@@H](NC(=O)c1cc(N2C3CCCC2COC3)c(F)cc1NC1CCN(C)CC1)c1cccc(C(F)F)c1F [Example 39, 5-(3-oxa-9-azabicyclo[3.3.1]nonan-9-yl)-N-((R)-1-(3-(difluoromethyl)-2-fluorophenyl)ethyl)-4-fluoro-2-((1-methylpiperidin-4-yl)amino)benzamide] | – | 111 |
